How the values were obtained:
[1] = NMR rate studies: pseudo-first order reaction with N-acetylcysteine methyl ester; format: physicochemical; conditions: electrophile 10 mM, N-acetyl cysteine methyl ester 78 mM, 2:1 deuterated PBS:DMSO-d6, pD 8, NMR
Description: We further validated the utility of electrophile 3 as a thiol-reactive tether by making a library of one hundred structurally diverse drug-like fragments 6-105 containing this electrophile. The library was constructed with an HBTU amide coupling with commercially available carboxylic acid fragments (FIG. 2A). The acids were selected with “rule of three” criteria^15 and a subsequent diversity analysis. We measured the reaction rates for the first fifty fragments to confirm that this library would have balanced cysteine reactivity and could be used for irreversible tethering (FIG. 2B).
N-Acetyl cysteine methyl ester was dissolved in 2:1 deuterated PBS:DMSO-d6 (78 mM) with 10 mM CH2Cl2 as an internal standard. The electrophile (10 mM) was then added immediately prior to acquiring spectra. H1 spectra were taken every 30 s for 30 min (or every 4 s for 5 min for highly reactive compounds 1c and 2a-c). The integrals of the vinyl peaks were used to determine the concentration of the electrophile over time. The natural logarithm of the concentration of the electrophile versus time was then plotted using GraphPad Prism software. The linear slope of this plot was used to determine the pseudofirst order rate constant. Deuterated PBS recipe: 20 mM Na3PO4, 50 mM NaCl in D2O was adjusted to pD 8 with DC1 solution.

[2] = target: T1, human rhinovirus 3C protease (GST-HRV3C, PreScission protease) (Human rhinovirus 14, UniProt P03303); experiment: Irreversible tethering counter-screen (ESI-MS) against HRV3C protease; format: binding; conditions: mixtures of ten fragments 100 μM each, 1 h
T1 construct: made in house; host or cells: E. coli Rosetta (DE3)pLysS
T1 sequence (P03303 1538-1719, added parts left off): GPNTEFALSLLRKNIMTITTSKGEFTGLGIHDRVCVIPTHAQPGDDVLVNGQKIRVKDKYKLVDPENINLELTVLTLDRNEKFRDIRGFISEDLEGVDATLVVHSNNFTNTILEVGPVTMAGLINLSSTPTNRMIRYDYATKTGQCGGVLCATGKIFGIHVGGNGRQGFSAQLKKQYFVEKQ
Procedure: FIG. 28A, FIG. 28B, FIG. 28C and FIG. 28D. Counterscreen of compound 6 against the deubiquitinase USPO8 and Human Rhinovirus (HRV) 3C protease, both of which have catalytic cysteines. Compound 6 at 100 μM in 1% DMSO was incubated with the catalytic domain of the indicated cysteine protease (10 μM) for 1 h, followed by gel filtration and whole protein ESI-MS.
To further test the specificity of the developed irreversible tethering system, we conducted a counter-screen of the same set of 100 compounds (10 mixtures of 10 compounds each) against three other enzymes: human rhinovirus 3C protease, the deubiquitinase USP08, and the E2 ubiquitin-conjugating enzyme UbcH7. […] The molecular weight of GST-HRV3C protease is 47566.72 Da and its amino acid sequence is provided as (SEQ ID NO:2).
10 μM of papain (Sigma P4762), UbcH7 (recombinantly expressed) or USPO8 (recombinantly expressed) in 50 mM HEPES 150 mM NaCl 0.1 mM EDTA pH 7.5 was treated with a mixture of ten fragments (Table S2) (10 mM DMSO stock solutions, final concentrations: 100 μM of each fragment, and 1% DMSO). The reaction mixture was incubated for 1 h or 4 h at 23° C. before being passed through Zeba gel filtration columns (Thermo, 7K MWCO) to remove unreacted fragments. The protein solution was then immediately analyzed by whole protein LC/ESI-MS.
Accurate-mass data were obtained on an Agilent 6210A LC-TOF mass spectrometer in positive ion mode using electrospray ionization. Samples were chromatographed on the LC-TOF instrument using a Poroshell 120 EC-C18 HPLC column (2.1*50 mm, 2.7 micron), an Agilent Series 1200 HPLC binary pump, and an Agilent Series 1200 autoinjector. The HPLC column was held at 45° C. and the autosampler was held at 8° C. Mobile Phase A was a solution of 0.1% formic acid in water:acetonitrile (19:1). Mobile Phase B was a solution of 0.1% formic acid in acetonitrile. The flow rate was set to 250 μL/min. The gradient used was 0% B for 2 minutes, ramping linearly to 90% B from 2 minutes to 5 minutes, holding at 90% B from 5 minutes to 7 minutes, and then returning to 0% B at 7.1 minutes. […]

NEDD4-1 HECT domain = target: T2, NEDD4-1 HECT domain (Homo sapiens, UniProt P46934); experiment: Covalent labeling of NEDD4-1 HECT domain (gel filtration, whole protein ESI-MS); format: binding; conditions: compound 100 μM, NEDD4-1 HECT 10 μM, 4 h
T2 construct: to elute NEDD4-1 HECT domain (50 mM HEPES, 150 mM NaCl, 0.1 mM EDTA 1 mM DTT); GST (N, cleaved yes); made in house; host or cells: E. coli BL21
T2 sequence (P46934 with tags, fused parts or gaps): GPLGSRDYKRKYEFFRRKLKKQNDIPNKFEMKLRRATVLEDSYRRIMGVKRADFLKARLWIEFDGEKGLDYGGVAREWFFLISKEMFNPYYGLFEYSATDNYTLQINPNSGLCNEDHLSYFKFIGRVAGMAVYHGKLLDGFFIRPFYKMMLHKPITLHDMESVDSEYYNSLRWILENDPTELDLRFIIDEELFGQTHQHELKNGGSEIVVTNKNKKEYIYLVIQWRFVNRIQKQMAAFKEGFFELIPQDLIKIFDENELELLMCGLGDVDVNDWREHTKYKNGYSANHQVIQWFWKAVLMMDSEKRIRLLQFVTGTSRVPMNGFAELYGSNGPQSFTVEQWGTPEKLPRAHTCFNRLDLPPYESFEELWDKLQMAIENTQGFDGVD
Procedure: 10 μM of NEDD4-1 HECT domain in 50 mM HEPES 150 mM NaCl 0.1 mM EDTA 1 mM DTT pH 7.5 was treated with a mixture of ten fragments (from 10 mM each DMSO stock solution mixtures; final concentrations: 100 μM of each fragment, and 1% DMSO). Fragment structures and mixture compositions were the same as reported previously. The reaction mixture was incubated for 4 h at 23° C. before being passed through Zeba gel filtration columns (Thermo, 7K MWCO) to remove unreacted fragments. The protein solution was then immediately analyzed by whole protein LC/ESI-MS.
Accurate-mass data were obtained on an Agilent 6210A LC-TOF mass spectrometer in positive ion mode using electrospray ionization. Samples were chromatographed on the LC-TOF instrument using a Poroshell 120 EC-C18 HPLC column (2.1*50 mm, 2.7 micron), an Agilent Series 1200 HPLC binary pump, and an Agilent Series 1200 autoinjector. The HPLC column was held at 45° C. and the autosampler was held at 8° C. Mobile Phase A was a solution of 0.1% formic acid in water:acetonitrile (19:1). Mobile Phase B was a solution of 0.1% formic acid in acetonitrile. The flow rate was set to 250 μL/min. The gradient used was 0% B for 2 minutes, ramping linearly to 90% B from 2 minutes to 5 minutes, holding at 90% B from 5 minutes to 7 minutes, and then returning to 0% B at 7.1 minutes. The column was allowed to equilibrate for 2.7 minutes before the next injection was initiated. The eluent from the column was diverted to waste for the first 2 minutes. The spectra were acquired from 301 to 3200 daltons using a gas temperature of 340° C., a gas flow of 7 liters/min, and the nebulizer gas at 35 psi. The following voltages were used: capillary 4200 V, fragmentor 230V, skimmer 64V, and octapole RF peak 250V. Spectra were acquired at a rate of 1 spectra/sec. The data was processed using MassHunter software version B.02.00. Maximum entropy deconvolutions were performed with a Mass Step of 1, S/N Threshold of 30, Average Mass at 90% of Peak Height, and 5 Charge States Minimum.
10 μM of NEDD4-1 HECT domain in 50 mM HEPES 150 mM NaCl 0.1 mM EDTA 1 mM DTT pH 7.5 was treated with 1 mM of inhibitor 1 or 2 (from 100 mM DMSO stock solution; final concentrations: 1 mM of inhibitor, 1% DMSO, and 0.2% CHAPS to solubilize the inhibitors at 1 mM). The reaction mixture was incubated for 4 h at 23° C. before being passed through Zeba gel filtration columns (Thermo, 7K MWCO) to remove unreacted inhibitor. The protein solution was then immediately used for crystallization or enzymatic assay.

papain [3] = target: T3, papain (Carica papaya, UniProt P00784); experiment: Papain activity assay (Cbz-Gly-ONp, kinact/KI); format: biochemical
T3 construct: purchased Sigma P4762
T3 sequence (P00784 134-345): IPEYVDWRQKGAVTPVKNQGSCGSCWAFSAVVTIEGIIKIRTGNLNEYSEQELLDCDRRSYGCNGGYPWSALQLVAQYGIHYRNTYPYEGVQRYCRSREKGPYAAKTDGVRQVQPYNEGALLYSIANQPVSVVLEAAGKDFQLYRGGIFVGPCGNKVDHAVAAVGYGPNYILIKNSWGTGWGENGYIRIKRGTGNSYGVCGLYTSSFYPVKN
Procedure: We subsequently tested compounds 6-8 in an enzymatic assay to confirm that they inhibited papain in the concentration and time dependent manner that is characteristic of irreversible inhibitors.^18 Using assay conditions previously described for papain,^17 we determined kinact/K1 values for compounds 6-8 (FIGS. 4 and 10).
Papain (4.8 μM) in 50 mM Na3PO4 2 mM EDTA was preactivated with 1 mM DTT for 30 min. Activated papain (3.84 μM) in 4:1 mixture of 50 mM Na3PO4, 2 mM EDTA at pH 6.2 and acetronitrile was then preincubated for 1 h with varying concentrations of the electrophilic fragment. Every 10 min, 10 μL of the reaction mixture was added to a well of 96-well plate containing 100 μL of 4:1 50 mM Na3PO4 2 mM EDTA pH 6.2:acetronitrile with 400 μM Cbz-Gly-ONp. p-Nitrophenol product formation was monitored by absorbance at 340 nm (£: 6800 M-1 cm-1) with a Biotek Synergy 4 plate reader. All reactions were performed in duplicate. Product concentration versus time was plotted with GraphPad Prism software and the initial slope was calculated to determine enzymatic activity (E). The values of kinact/KI for each inhibitor were then determined according to the method of Kitz and Wilson.23 Briefly, the slopes of the plots of ln(100*Einhibited/Euninhibited) vs. time were used to determine the pseudo-first order inhibition constant kobs for a given concentration of a given inhibitor. […]

papain [4] = target: T3, papain; experiment: Irreversible tethering screening assay (whole protein ESI-MS) against papain; format: binding
Procedure: Papain (10 μM) was incubated for one hour with ten reaction mixtures that each contained ten electrophilic fragments (100 μM each) (Table S2).
Hits were defined as any compounds which labeled papain more than 50%. […] Such selectivity is impressive, given a 9-fold excess of other cysteine reactive electrophiles over compounds 6, 7, and 8. […] This is despite the fact that these reaction mixtures contain a 100-fold excess of cysteine reactive electrophiles relative to the highly reactive catalytic cysteine of papain. […]
10 μM of papain (Sigma P4762), UbcH7 (recombinantly expressed) or USPO8 (recombinantly expressed) in 50 mM HEPES 150 mM NaCl 0.1 mM EDTA pH 7.5 was treated with a mixture of ten fragments (Table S2) (10 mM DMSO stock solutions, final concentrations: 100 μM of each fragment, and 1% DMSO). […] The protein solution was then immediately analyzed by whole protein LC/ESI-MS. […]
200 μL of papain and compound 6-8 adducts were prepared separately as described above in “irreversible tethering screening assay” by incubating papain (10 μM) with 100 μM of compounds 6-8 in 1% DMSO 50 mM HEPES 150 mM NaCl 0.1 mM EDTA pH 7.5. […] The cassettes were dialyzed against 500 mL of 50 mM HEPES 150 Mm NaCl 0.1 mM EDTA pH 7.5 for 16 h, then 20 μL were extracted and analyzed by ESI-MS. […]

Row | Structure (SMILES) | k pseudo-first order [1] [s⁻¹] | also measured
1 | COC(=O)/C=C/CNC(=O)c1csc(-c2cccs2)n1 [Compound 22] | 0.0007605 | labeling of HRV3C protease [2]: ~35%
2 | CCOc1ccc2c(c1)c(C(=O)NC/C=C/C(=O)OC)c(C)n2C [Compound 10, Methyl(E)-4-(5-ethoxy-1,2-dimethyl-1H-indole-3-carboxamido)but-2-enoate] |  | labeling of NEDD4-1 HECT domain (qualitative) (NEDD4-1 HECT domain): did not label NEDD4-1
3 | COC(=O)/C=C/CNC(=O)c1cc2cc(Cl)cc(OC)c2o1 [Compound 98] |  | labeling of HRV3C protease [2]: ~20%
4 | COC(=O)/C=C/CNC(=O)c1ccc(C2CCCO2)s1 (centres unmarked) [Compound 19] | 0.0004396 | fold less potent at inhibiting papain than the least potent inhibitor 6 (papain [3]): ~10 fold; fold less potent at inhibiting papain than the most potent inhibitor 7 (papain [3]): ~33 fold; covalent labeling of papain (papain [4]; papain 10 μM, mixtures of ten fragments 100 μM each, 1 h, hit = labeled papain more than 50%): did not label papain
5 | COC(=O)/C=C/CNC(=O)[C@H](Cc1ccccc1)NC(C)=O [Compound 106, reference compound] |  | effect of pretreatment of papain on subsequent labeling by compounds 6-8 (papain [4]; 100 μM 106 for 1 h, then 100 μM of 6, 7 or 8): blocked subsequent labeling by compounds 6-8
6 | COC(=O)/C=C/CNC(=O)c1ccc2ccccc2n1 [Compound 32] | 0.0006296 | labeling of HRV3C protease [2]: ~20%
7 | COC(=O)/C=C/CNC(=O)c1cnn(Cc2ccccc2)c1 [Compound 49] | 0.0004975 | 
8 | CCC(C(=O)NC/C=C/C(=O)OC)n1cccn1 (centres unmarked) [Compound 39] | 0.000651 | 
9 | COC(=O)/C=C/CNC(=O)[C@@H]1CCCN1C(=O)C1CC1 [Compound 31] | 0.0005193 | 
10 | COC(=O)/C=C/CNC(=O)Cn1c(=O)cc(C)c2ccccc21 [Compound 55] | 0.000452 | 
11 | COC(=O)/C=C/CNC(=O)c1ccc(-c2ccc(C)o2)cc1 [Compound 23] | 0.0004979 | 
12 | COC(=O)/C=C/CNC(=O)c1cc(Br)ccc1OC [Compound 38] | 0.0007728 | 
13 | COC(=O)/C=C/CNC(=O)c1cc(Br)ccc1N [Compound 35] | 0.0005755 | 
14 | COC(=O)/C=C/CNC(=O)Cc1ccncc1 [Compound 25] | 0.0005202 | 
15 | COC(=O)/C=C/CNC(=O)CN(C)C1CCCC1 [Compound 20] | 0.0005603 | 
